Test results from patent US12465582B2, “(S)-2-amino-6-((3-aminopropyl)amino)hexanoic acid (APL) for use in the treatment of non-alcoholic steatohepatitis (NASH), liver inflammation, hepatocellular ballooning, liver fibrosis and steatosis” (Temple University—Of The Commonwealth System Of Higher …, priority 2020, dated 2025).

Legend:
Zucker fa/fa obese rats = test: Glucose tolerance test (GTT) in Zucker rat model of NASH; type: in vivo; conditions: 100 mg/kg APL p.o. b.i.d., 78 days, **p<0.01
Source text: Zucker fa/fa obese rats and Zucker Fa/fa lean rats (7-week old male animals obtained from Charles Rivers Laboratories, Wilmington, MA, USA) were maintained in individual cages (1 rat per cage to encourage sedentary activity) and had free access to standard rodent chow (Cat #5053, obtained from Labdiet, Saint Louis, MO) and water (filtered and packed using a Hydrapak system) for 7 days until the start of the experiment. Zucker fa/fa obese rats were randomly assigned to two groups: 1) vehicle p.o.b.i.d. (oral administration, twice a day) for 78 days (n=7); and 2) 100 milligram per kilogram (mg/kg) body weight APL (p.o.b.i.d.) for 78 days (n=8). Zucker Fa/fa lean rats (n=4) were administered vehicle (p.o.b.i.d.) for 78 days. Phosphate-buffered saline (PBS), which is the solution used to dissolve APL, was used as vehicle solution. APL powder was dissolved under sterile conditions with PBS at a concentration of 100 mg/mL; volumes were adjusted for each animal accordingly to their body weight. […]
At the conclusion of the experimental time period (78 days for rats and 130 days for mice), the animals were subjected to a glucose tolerance test (GTT) as follows. […] Glucose levels were measured at 0, 15, 30, 45, 60, and 120 minutes after glucose administration. Glucose was measured using the AlphaTRAK 2 glucometer from Abbott

[1] = system: Zucker (fa/fa) obese rats; test: Hepatic fibrosis: H&E and Mason trichrome liver histology in Zucker rat NASH model; type: in vivo; conditions: 100 mg/kg APL p.o. b.i.d., 78 days
Source text: Zucker (fa/fa) obese rats and Zucker (Fa/fa) lean rats (7-week old male animals obtained from Charles Rivers Laboratories, Wilmington, MA, USA) were maintained in individual cages (1 rat per cage to encourage sedentary activity) and had free access to standard rodent chow (Cat #5053 obtained from Labdiet, Saint Louis, MO) and water for (filtered and packed using a Hydrapak system) for 7 days until the start of the experiment. Zucker (fa/fa) obese rats were randomly assigned to two groups: 1) vehicle p.o.b.i.d. (oral administration, twice a day) for 78 days; and 2) 100 milligram per kilogram (mg/kg) body weight APL (p.o.b.i.d.) for 78 days. Zucker (Fa/fa) lean rats served as control. The APL dosage was 100 mg/kg/day. Animals were fed ad libitum. The animals were humanely euthanized, and the livers were removed for histological analysis. Liver samples in formalin were allowed to fix for 48 hours, and processed into FFPE blocks after fixations. Slides were stained with hematoxylin and eosin (H&E) and Mason trichrome staining.

[2] = system: C57BL/6J mice fed high fat/high fructose diet (HFD); test: Glucose tolerance test (GTT) in diet-induced obesity (HFD) mouse model of NASH; type: in vivo; conditions: APL 200 mg/kg/day p.o. in two doses, 130 days
Source text: C57BL/6J mice 5 week old male mice obtained from Jackson Laboratories, Bar Harbor, ME, USA) were maintained in cages (5 mice per cage) and had free access to standard rodent chow (Cat #5053, obtained from Labdiet, Saint Louis, MO) and water (filtered and packed using a Hydrapak system) for 5 days until the start of the experiment. The animals were then randomly assigned to five groups (n=5 for each group) receiving different diets and treatments as shown in Table A for 130 days. Each treatment was administered p.o.b.i.d. The APL dosage administered to each animal was 200 milligrams per kilogram of body weight divided in two dosages per day, via oral gavage and the pioglitazone dosage received each animal was 20 milligrams per kilogram of body weight divided in two dosages per day, via oral gavage. “HFD” is high fat/high fructose diet, which contains 58% fat, 25% carbohydrate and 17% protein. HFD was obtained from Research Diets, Inc. “Chow” refers to standard rodent chow (Cat #5053, obtained from Labdiet, Saint Louis, MO). Animals were fed ad libitum, except during the GTT experiments.
At the conclusion of the experimental time period (78 days for rats and 130 days for mice), the animals were subjected to a glucose tolerance test (GTT) as follows. Animals were fasted for 5 hours, weights, and their tails were clipped to measure fasting blood glucose levels. Immediately after, glucose (2 mg/g body weight) was administered orally. Glucose levels were measured at 0, 15, 30, 45, 60, and 120 minutes after glucose administration. Glucose was measured using the AlphaTRAK 2 glucometer from Abbott

[3] = system: C57BL/6J mice fed high fat/high fructose diet (HFD); test: Hepatic steatosis: liver histology (H&E, BODIPY/DAPI) in HFD mouse NASH model; type: in vivo
Source text: As in Example 1, C57BL/6 mice (same sample of mice as in Example 1) were maintained in cages (5 mice per cage) and had free access to standard rodent chow (Cat #5053, obtained from Labdiet, Saint Louis, MO) and water (filtered and packed using a Hydrapak system) for 5 days. […] The APL dose was 200 milligram per kilogram (mg/kg) per day, administered as two 100 milligram per kilogram (mg/kg) body weight APL (p.o.b.i.d.). Animals were fed ad libitum. The animals were humanely euthanized, and the livers were removed for histological analysis. Liver samples in formalin were allowed to fix for 48 hours, and processed into FFPE blocks after fixations. Slides were stained with hematoxylin and eosin (H&E) and to immunostaining with BODIPY and DAPI to quantitate fat deposition and nuclei number using confocal microscopy. See, e.g., Rico et al, 2007, J Cell Physiol, 211(2):504-12; and Daemen et al, 2016, Mol Metab, 5(3) 153-63. The data are depicted in FIGS. 3, 4, and 5
FIG. 5D is the plot of fat deposition assessed using confocal microscopy. Measurements were made in 20×-magnification fields. More than 21 fields from three different animals from each group were analyzed: Chow-vehicle (#fields=26), HFD-Vehicle (#fields=25) and HFD-APL (#fields=23). Indirect measurement using imageJ (Schneider et al., 2012, Nature Methods 9(7): 671-675) was used to calculate fat deposition. Fat deposition was increased 3-fold in HFD/vehicle-treated mice compared with CHOW control mice and with HFD/APL-treated mice (***p<0.001).

[4] = See WO 2018/049019 and US 2019/0192462; cited from earlier work
[5] = HFD mice, APL 200 mg/kg/day p.o. b.i.d., 20 weeks

In the case of `NCCCNCCCC[C@H](N)C(=O)O` [APL, (S)-2-amino-6-((3-aminopropyl)amino)hexanoic acid], the “AUC of GTT, obese rats treated with APL vs obese rats treated with vehicle” value (Zucker fa/fa obese rats) is reported as “significantly lower”, the “liver morphology, H&E (FIG. 8A)” value [1] is reported as “preserve the normal morphology of the liver” and the “liver collagen fibers, Mason trichrome blue staining (FIG. 8B/8C)” value ([1]; vs multiple collagen fibers with vehicle) is reported as “minimum blue staining”. The “AUC of GTT of HFD/vehicle mice compared to mice fed HFD and treated with APL” value ([2]; **p<0.01) was “significantly higher”, the “blood glucose levels in GTT, treated vs negative control (chow vehicle)” value ([2]; HFD mice, any time point 0-120 min) was “no significant statistical difference” and the “blood glucose levels in GTT, treated vs positive control (HFD vehicle)” value ([2]; HFD mice, at 15-min (p<0.0001), 60-min (p<0.05), 120-min (p<0.001)) was “significant statistical difference”. For the same molecule, the “number of nuclei (DAPI) of HFD/vehicle mice compared to mice fed HFD and treated with APL” value ([3]; APL 200 mg/kg/day p.o. b.i.d., ***p<0.001) was “statistically significant fewer”, the “fat deposition, increase in HFD/vehicle-treated mice compared with HFD/APL-treated mice” value ([3]; APL 200 mg/kg/day p.o. b.i.d., confocal microscopy, ImageJ, ***p<0.001) was 3 fold and the “hepatocyte ballooning induced by HFD in H&E liver sections (FIG. 3)” value ([3]; HFD mice treated with APL for 131 days, 20x magnification) was “minimal or no ballooning”. For the same molecule, the “anatomical structure of the liver, H&E (FIG. 5A)” value ([3]; HFD mice, APL 200 mg/kg/day p.o. b.i.d.) was “retained the normal anatomy of the liver”, the “hepatocyte fat accumulation, inflammatory infiltration and hepatocyte ballooning in H&E liver sections” value ([3]; HFD mice, APL 200 mg/kg/day p.o. b.i.d., 18 weeks, vs HFD vehicle) was “less severe” and the “fat deposition, treated group vs negative control (chow vehicle)” value [3, 5] was “No significant statistical difference”. The “number of nuclei (hepatocytes), treated group vs negative control (chow vehicle)” value [3, 5] was “no statistical differences” and the “affinity for 4-HNE” value [4] was “high affinity”.
